According to US20090304663A1, “USE OF GSK-3 INHIBITORS FOR THE TREATMENT OF PROSTATE CANCER” (IMPERIAL INNOVATIONS LIMITED, priority 2004, published 2009):
pKi: −log10 of the molar value. “Also recorded” adds a separate entry of the source. Where two headings read alike, the source gives them in different places.

Experiments:
[1] = tested on: panel of 79 commonly studied protein kinases, including several PKC isozymes; settings: in words; cited from earlier work
GSK-3 = settings: cited from earlier work
human GSK-3 = settings: cited from earlier work
[2] = tested on: inositol monophosphatases; settings: in words; cited from earlier work
[3] = tested on: AR transcriptional activity; test: AR transcriptional activity, MMTV-Luciferase reporter in CWR-R1 cells; format: cell-based
22Rv1 cells = test: cell growth assay, 22Rv1 cells; format: cell-based
[4] = tested on: β-catenin/Tcf transcriptional activity; test: β-catenin/Tcf transcriptional activity, pOT-Luciferase reporter in CWR-R1 cells; format: cell-based; settings: 20 μM SB415286 or 5 μM SB216763, 24 h, normal growth medium
CWR-R1 cells = test: cell growth assay, CWR-R1 cells; format: cell-based; settings: for CWR-R1 cell growth (number of cells): 5 μM SB216763 or 20 μM SB415286, up to 6 days
Experimental: (a) CWR-R1 cells were grown in the presence of carrier (ut). […] The experiment was done twice in triplicate and the error bars indicate standard deviation. […] The experiment was done in triplicate and the error bars indicate standard deviation. […] The number of cells was counted after 72 h (or after 5 days for LNCaP cells). Experiments were done in triplicate and the error bars indicate standard deviation. […] Cell growth assays were conducted according to Gregory et al, (2001). Briefly, cells (1.5×10^5/well) were plated in 12-well plates (three wells were used for each condition) and allowed to attach overnight. […] Cells were collected by trypsinisation at the indicated times and were counted using a Coulter Counter or using a haemocytometer.

LNCaP cells = test: cell growth assay, LNCaP cells; format: cell-based; settings: 5 μM SB216763, hormone-depleted medium with 1 nM R1881, 5 days
Experimental: (§1) The number of cells was counted after 72 h (or after 5 days for LNCaP cells). Experiments were done in triplicate and the error bars indicate standard deviation. […] Cell growth assays were conducted according to Gregory et al, (2001). Briefly, cells (1.5×10^5/well) were plated in 12-well plates (three wells were used for each condition) and allowed to attach overnight. […] Cells were collected by trypsinisation at the indicated times and were counted using a Coulter Counter or using a haemocytometer.

DU145 cells = test: cell growth assay, DU145 cells; format: cell-based; settings: 5 μM SB216763, normal growth medium, 72 h
Experimental: as §1

PC3 cells = test: cell growth assay, PC3 cells; format: cell-based; settings: 5 μM SB216763, normal growth medium, 72 h
Experimental: as §1

AR protein = AR protein level by western blotting in CWR-R1 cells; format: cell-based; settings: 5 μM SB216763 or 20 μM SB415286, 24 h, western blot
Experimental: FIG. 6: Inhibition of GSK-3 leads to a reduction in AR protein levels. […] Western blots of whole cell extracts were probed for AR (upper panels) and reprobed for γ-tubulin as an internal loading control (lower panels).
Cells were grown to 50-70% confluence in 100 mm dishes or 6-well plates. Lysates were obtained using the following steps: Cells were rinsed in cold TBS, lysed in modified RIP A buffer (0.5% deoxycholate, 1% Triton X-100, 20 mM Tris pH 8.0, 0.1% SDS, 100 mM NaCl, 50 mM NaF) or Nonidet P-40 buffer (1% NP-40, 20 mM Tris pH 8.0, 150 mM NaCl, 50 mM NaF) for 10 min and centrifuged for 12 min at 15,000×g. Cell extracts were then mixed with an equal volume of SDS sample buffer (Sigma Aldrich) and heated to 95° C. for 3 min. For immunoprecipitation (IP) assays in transfected COS7 cells, cell extracts were prepared using NP-40 lysis buffer, incubated with primary antibody for 1 h on ice. This was followed by 30 min incubation with 20 μl protein A/G-agarose (Cambridge Biosciences) on a rotating wheel in the cold room. After 4 washes in lysis buffer and 1 wash in TBS, the beads were resuspended in 10 μl of SDS sample buffer and heated as above. […]

[5] = CWR-R1 cells, 10 nM R1881, 20 μM SB415286 or 5 μM SB216763, 24 h

For `O=C1NC(=O)C(c2cn(CCCO)c3ncccc23)=C1c1cnccn1` [3-(1-(3-Hydroxypropyl)-1H-pyrrolo[2,3-b]pyridin-3-yl]-4-pyrazin-2-yl-pyrrole-2,5-dione], the “inhibition of the kinase panel” value [1] is given as “minimally inhibits”.

For `Cc1cc(Nc2nc(-c3ccccc3)nc3ccccc23)n[nH]1` [5-Methyl-1H-pyrazol-3-yl)-(2-phenylquinazolin-4-yl)amine], the pKi (GSK-3; ATP-binding site inhibitor) is given as 7.62.

In the case of `[Cl-].[Li+]` [Lithium chloride, lithium chloride], the IC50 value (GSK-3; in words) is listed as “high” and the “inhibition of inositol monophosphatases relative to GSK-3” value [2] is listed as “to a similar extent”.

With `C[C@]1(O)CC[C@H]2[C@@H]3CCC4=CC(=O)CCC4=C3C=C[C@@]21C` [R1881, methyltrienolone] the AR transcriptional activity [3] was “increase” and the “growth of 22Rv1 cells” value (22Rv1 cells; hormone-depleted medium, 10^−12 M or 10^−9 M R1881, 72 h) was “stimulated”.

For `Cn1cc(C2=C(c3ccc(Cl)cc3Cl)C(=O)NC2=O)c2ccccc21` [SB216763], the β-catenin/Tcf-dependent transcriptional activity [4] was “increased”, the AR transcriptional activity [3, 5] was “reduced” and the “growth of CWR-R1 cells (number of cells)” value (CWR-R1 cells; 5 μM SB216763, normal growth medium, 72 h) was “significantly reduced”. The “CWR-R1 cell growth (number of cells)” value (CWR-R1 cells) was “repressed”, the “concentration at which inhibitory effects on cell growth were maximal (optimal dose)” value (CWR-R1 cells; CWR-R1 cells, 72 h, complete growth medium) was 3 µM and the “growth of 22Rv1 cells (number of cells)” value (22Rv1 cells; 5 μM SB216763, hormone-depleted medium with 1 nM R1881, 72 h) was “significantly reduced”. The “R1881-stimulated growth of 22Rv1 cells” value (22Rv1 cells; 5 μM SB216763, hormone-depleted medium with R1881, 72 h) was “blocked”, the “hormone-independent proliferation of 22Rv1 cells” value (22Rv1 cells; 5 μM SB216763, hormone-depleted medium, absence of hormone, 72 h) was “inhibited” and the “growth of LNCaP cells (number of cells)” value (LNCaP cells) was “significantly reduced; also recorded: weakly inhibited”. For the same compound, the “DU145 cell growth (number of cells)” value (DU145 cells) was “did not significantly affect”, the “PC3 cell growth (number of cells)” value (PC3 cells) was “did not significantly affect” and the “protein level of AR” value (AR protein) was “reduced”.

With `O=C1NC(=O)C(c2ccccc2[N+](=O)[O-])=C1Nc1ccc(O)c(Cl)c1` [SB415286] the AR transcriptional activity [3, 5] was “reduced”, the “CWR-R1 cell growth (number of cells)” value (CWR-R1 cells) was “repressed” and the “dose dependence of inhibitory effects on CWR-R1 cell growth” value (CWR-R1 cells; up to 50 μM, data not shown) was “increased with dose up to the maximal dose tested”. The “protein level of AR” value (AR protein) was “reduced”.

In the case of CHIR 98014, the pKi (human GSK-3) is given as 9.06.
